The results in this text go back to article PMC2952885 (ChemMedChem, 2009).

Usually IC50 stands for the point on the concentration scale where inhibition reaches its midpoint. A high value points to weaker potency in that assay.

For the assay, the target named is PDE7A1 catalytic domain (residues 130–482) (Homo sapiens, UniProt Q13946). As to the kind of experiment: [3H]cAMP hydrolysis radioassay. The assay is classed as biochemical.
PDE7A1 catalytic domain (residues 130–482), sequence (Q13946 130-482): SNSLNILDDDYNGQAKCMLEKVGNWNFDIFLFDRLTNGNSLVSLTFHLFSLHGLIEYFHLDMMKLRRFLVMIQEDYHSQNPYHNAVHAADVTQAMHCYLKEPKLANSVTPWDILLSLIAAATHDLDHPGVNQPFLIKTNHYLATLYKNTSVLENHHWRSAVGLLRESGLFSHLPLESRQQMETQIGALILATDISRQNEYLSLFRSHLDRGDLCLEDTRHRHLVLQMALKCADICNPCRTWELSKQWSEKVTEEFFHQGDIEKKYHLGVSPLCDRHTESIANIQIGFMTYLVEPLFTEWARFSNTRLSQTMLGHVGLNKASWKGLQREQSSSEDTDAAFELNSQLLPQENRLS
`CSc1nc2ccsc2c(=O)n1-c1c(F)cccc1F` [compound 36, 3-(2,6-Difluorophenyl)-2-methylthio-4-oxo-3,4-dihydrothieno-[3,2-d]pyrimidine] returned an IC50 of 0.8 ± 0.2 µM. The value for `COc1ccc(C2CNC(=O)C2)cc1OC1CCCC1` (centres unmarked) [Rolipram, reference compound] was 129 ± 10 µM. The value for `CC(C)Cn1c(=O)n(C)c(=O)c2[nH]cnc21` [IBMX, reference compound] was 8.1 ± 0.4 µM; that for `CSc1nc2ccsc2c(=O)n1-c1ccccc1` [compound 35, 2-Methylthio-4-oxo-3-phenyl-3,4-dihydrothieno[3,2-d]pyrimidine] was around 10 µM.

`CSc1nc2c(sc3ccccc32)c(=O)n1-c1c(F)cccc1F` [compound 39, 3-(2,6-Difluorophenyl)-2-methylthio-4-oxo-3,4-dihydrobenzo-[4,5]thieno[3,2-d]pyrimidine] came in with an IC50 of 0.41 ± 0.03 µM.
